Laboratory results from patent publication US4132802A, “Benzoic acid derivative and benzenesulfonic acid mucolytic process” (Mead Johnson & Company, priority 1978, dated 1979).
Several values for one entry are separate records, joined by “and”; a condition that tells them apart may be missing. Identical values can stand only once. Like-named read-outs stand apart in the source and are kept apart here.

Tests used:
[1] = Mucolytic activity: percent reduction in viscosity of sputum, cone-plate viscometer (method of Lieberman); design: species or system human; settings: for Relative molar potency compared to N-acetyl-L-cysteine: on a molar basis, N-acetyl-L-cysteine = 1; for Mucolytic activity compared to N-acetyl-L-cysteine (in words): compared with N-acetyl-L-cysteine
Experimental: Mucolytic activity was determined using the method of J. Lieberman, Am. J. Resp. […] This is a viscometric method which employs a cone-plate viscometer (Brookfield Engineering Laboratories, Inc., Stoughton, Mass.). According to this method, a 2 ml. aliquot of a batch of purulent human sputum (obtained from bronchitic patients) is transferred to the center of the viscometer plate and the temperature is allowed to equilibrate. The plate is then rotated at gradually increasing speeds up to 100 r.p.m. during a 2-minute period. This reduces the amount of sputum on the test plate to 1 ml. and reduces the viscosity of the specimen to a reproducible value which is necessary because of the thixotropic properties of sputum. […] The test is repeated with N-acetyl-L-cysteine employing another aliquot of sputum to establish a control for comparison purposes. Relative molar potencies compared to N-acetyl-L-cysteine (NAC) can be determined by varying concentration of the test agent until approximately equivalent mucolytic activity is obtained.

[2] = Toxicity (LD50, TD50) in the mouse; settings: in vivo
From the text: The substances of Formula I are relatively non-toxic substances substantially free of other pharmacologic action.

| SMILES | Percent reduction in viscosity ([1]; 0.005 Molar, 1 min, 5000 µM) [%] | Percent reduction in viscosity ([1]; 0.005 Molar, 3 min, 5000 µM) [%] | Percent reduction in viscosity ([1]; 0.005 Molar, 6 min, 5000 µM) [%] | Percent reduction in viscosity ([1]; 0.005 Molar, 9 min, 5000 µM) [%] | Percent reduction in viscosity ([1]; 0.005 Molar, 12 min, 5000 µM) [%] | Percent reduction in viscosity ([1]; 0.005 Molar, 15 min, 5000 µM) [%] | Percent reduction in viscosity ([1]; 0.01 Molar, 1 min, 10000 µM) [%] | Percent reduction in viscosity ([1]; 0.01 Molar, 3 min, 10000 µM) [%] | Percent reduction in viscosity ([1]; 0.01 Molar, 6 min, 10000 µM) [%] | Percent reduction in viscosity ([1]; 0.01 Molar, 9 min, 10000 µM) [%] | Percent reduction in viscosity ([1]; 0.01 Molar, 12 min, 10000 µM) [%] | Percent reduction in viscosity ([1]; 0.01 Molar, 15 min, 10000 µM) [%] | Relative molar potency compared to N-acetyl-L-cysteine [1] | Percent reduction in viscosity ([1]; 0.03 Molar, 1 min, 30000 µM) | Percent reduction in viscosity ([1]; 0.03 Molar, 3 min, 30000 µM) | Percent reduction in viscosity ([1]; 0.03 Molar, 6 min, 30000 µM) | Percent reduction in viscosity ([1]; 0.03 Molar, 9 min, 30000 µM) | Percent reduction in viscosity ([1]; 0.03 Molar, 12 min, 30000 µM) | Percent reduction in viscosity ([1]; 0.03 Molar, 15 min, 30000 µM) | Mucolytic activity compared to N-acetyl-L-cysteine (in words) [1] | further results |
| --- | --- | --- | --- | --- | --- | --- | --- | --- | --- | --- | --- | --- | --- | --- | --- | --- | --- | --- | --- | --- | --- |
| O=C(CS)Nc1ccc(C(=O)O)cc1 [Compound 1, 4-(2-MERCAPTOACETAMIDO)BENZOIC ACID] | 32 | 50 | 57 | 55 | 55 | 55 | 45 | 63 | 69 | 76 | 82 | 84 | approximately 12 times | – | – | – | – | – | – | – | LD50 ([2]; ip, intraperitoneally, read-out: LD50): 1110 mg/kg; TD50 ([2]; named in the same clause as the oral LD50, read-out: approximate TD50): ~250 mg/kg; LD50 ([2]; oral, read-out: approximate LD50): ~2000 mg/kg |
| CC(=O)N[C@@H](CS)C(=O)O [NAC, N-acetyl-L-cysteine, reference compound] | – | – | – | – | – | – | – | – | – | – | – | – | – | 25% and 29% and 33% | 32% and 33% and 34% | 40% and 36% | 42% and 40% and 34% | 42% and 43% and 34% | 40% and 34% | – | Percent reduction in viscosity ([1]; 0.06 Molar, 1 min, 60000 µM): 36%; Percent reduction in viscosity ([1]; 0.06 Molar, 3 min, 60000 µM): 45%; Percent reduction in viscosity ([1]; 0.06 Molar, 6 min, 60000 µM): 52%; Percent reduction in viscosity ([1]; 0.06 Molar, 9 min, 60000 µM): 50%; Percent reduction in viscosity ([1]; 0.06 Molar, 12 min, 60000 µM): 52%; Percent reduction in viscosity ([1]; 0.06 Molar, 15 min, 60000 µM): 60% |
| O=C(CS)Nc1ccc(S(=O)(=O)O)cc1 [Compound 3, N-(2-MERCAPTOACETYL)SULFANILIC ACID] | 34 | 47 | 50 | 50 | 47 | 44 | 46 | 64 | 66 | 68 | 77 | 82 | – | – | – | – | – | – | – | – | – |
| O=C(CS)Nc1ccc(C(=O)NCCO)cc1 [Compound 4, N-(2-HYDROXYETHYL)-4-(2-MERCAPTOACETAMIDO)BENZAMIDE] | 30 | 58 | 67 | 75 | 82 | 82 | – | – | – | – | – | – | approximately 15 times | – | – | – | – | – | – | – | Percent reduction in viscosity ([1]; 0.001 Molar, 1 min): 25%; Percent reduction in viscosity ([1]; 0.001 Molar, 3 min, 1000 µM): 32%; Percent reduction in viscosity ([1]; 0.001 Molar, 6 min, 1000 µM): 36%; Percent reduction in viscosity ([1]; 0.001 Molar, 9 min, 1000 µM): 36%; Percent reduction in viscosity ([1]; 0.001 Molar, 12 min, 1000 µM): 36%; Percent reduction in viscosity ([1]; 0.001 Molar, 15 min, 1000 µM): 34%; Percent reduction in viscosity ([1]; 0.002 Molar, 1 min, 2000 µM): 26%; Percent reduction in viscosity ([1]; 0.002 Molar, 3 min, 2000 µM): 37%; Percent reduction in viscosity ([1]; 0.002 Molar, 6 min, 2000 µM): 42%; Percent reduction in viscosity ([1]; 0.002 Molar, 9 min, 2000 µM): 44%; Percent reduction in viscosity ([1]; 0.002 Molar, 12 min, 2000 µM): 44%; Percent reduction in viscosity ([1]; 0.002 Molar, 15 min, 2000 µM): 42% |
| CC(=O)SCC(=O)Nc1ccc(C(=O)O)cc1 [Compound 5, 4-[2-(ACETYLTHIO)ACETAMIDO]BENZOIC ACID] | – | – | – | – | – | – | – | – | – | – | – | – | – | 34% | 42% | 54% | 54% | 52% | 48% | significantly more active than N-acetyl-L-cysteine | – |
| O=C(CS)Nc1cccc(C(=O)O)c1 [Compound 2, 3-(2-MERCAPTOACETAMIDO)BENZOIC ACID] | – | – | – | – | – | – | – | – | – | – | – | – | – | 44% | 67% | 81% | 89% | 91% | 93% | substantially more active than N-acetyl-L-cysteine | – |
